The text below walks through data of article PMC2189693 (The Journal of Experimental Medicine, 1988).

The test concerns anti-al mAb, 3-2F1. It is filed as binding, mouse. The note with it: for Inhibition of binding of rabbit a1 Ig to anti-a1 antibody (in words): RIA with mAb 3-2F1, 24 h preincubation of inhibitor, result in words.

In the case of “MQIFVKTLTGKDPGG [UB1, reference compound]”, the “Inhibition of binding of rabbit a1 Ig to anti-a1 antibody (in words)” value is “Neither the substituted peptide, SMA1, nor the control peptide, UB1, inhibited binding”.

With IGYIYPNIDDSAY_SQ [SMA1], the “Inhibition of binding of rabbit a1 Ig to anti-a1 antibody (in words)” value is given as “Neither the substituted peptide, SMA1, nor the control peptide, UB1, inhibited binding”. In the case of IT_SPTTEDTAT_YFCA [RA1], the “expression of an a1 epitope (in words)” value (conclusion from peptide inhibition of al Ig binding to anti-al) is “each appear to define an al epitope”.
